Reference: US20180117053A1, “The Method of Use for Inhibitors of Epidermal Growth Factor Receptor Variants II, III and VI” (Metastat, Inc., priority 2015, published 2018)

Experiments:
EGFR-viii = target: T1, EGFR-viii (Homo sapiens, UniProt P00533, DELINS30-297G); test: PhosphoY1173-EGFR-viii in-cell ELISA in U87MG tumor cells engineered to express EGFR-viii; assay type: cell-based; settings: U87MG tumor cells expressing EGFR-viii; for activity against EGFR-viii: in words
T1 construct: expressed in transfected cells; host or cells: U87MG (ATCC), lentiviral infection, puromycin selection
Experimental: Data are expressed as EC50 and were determined using an in-cell ELISA kit (Pierce).

[1] = test system: tumors expressing EGFR-viii; settings: clinical studies (Vivanco 2012, Reardon 2014); cited from earlier work

Row | SMILES | activity against EGFR-viii (EGFR-viii; in-cell ELISA) | also measured
1 | C=CC(=O)Nc1ccc2ncnc(Nc3ccc(OCc4cccc(F)c4)c(Cl)c3)c2c1 [AST-1306] |  | potency against EGFR-viii relative to WZ4002, WZ8040, WZ3146, CO-1686 and AZD9291 (EGFR-viii): at least ten-fold more potent; EC50 (EGFR-viii; in-cell ELISA, read-out: EC50 against EGFR-viii (phosphoY1173-EGFRviii)): < 0.05 µM
2 | C=CC(=O)Nc1cccc(Nc2nc(Nc3ccc(N4CCN(C(C)=O)CC4)cc3OC)ncc2C(F)(F)F)c1 [CO-1686] | weak activity | 
3 | CS(=O)(=O)CCNCc1ccc(-c2ccc3ncnc(Nc4ccc(OCc5cccc(F)c5)c(Cl)c4)c3c2)o1 [Lapatinib, lapatinib] |  | cancer growth inhibition in clinical studies [1]: insignificant cancer growth inhibition
4 | C=CC(=O)Nc1cccc(Oc2nc(Nc3ccc(N4CCN(C)CC4)cc3)ncc2Cl)c1 [WZ3146] | weak activity | 
5 | C=CC(=O)Nc1cccc(Sc2nc(Nc3ccc(N4CCN(C)CC4)cc3)ncc2Cl)c1 [WZ8040] | weak activity | 
